Experimental data as given in US20250057832A1, “USE OF A CLASS OF 1,4-DIHYDRO-NAPHTHYRIDINE DERIVATIVES IN TREATMENT OF TUMORS” (NEURODAWN PHARMACEUTICAL CO., LTD., priority 2021, published 2025).

What was measured:
T98G cells [1] = assay: Vacuolation induction in T98G cells (Example 1); type: cell-based, human; settings: for Vacuolation rate (%): 6 hours, mean±SD; for Induction of vacuolation in T98 cells: FIG. 1 and Table 1
Protocol: T98G cells were stably passaged twice. When the cell density reached more than 85%, the cells were digested with 0.05% trypsin-EDTA for 3 minutes, resuspended with the culture medium, and plated in a 12-well plate at a certain density, with each well system being 1 mL. The cells were cultured for 24 hours, and added with the compound solution prepared above to each well according to the grouping, so that the concentrations of the compounds in the culture system were respectively 5 μM, 10 μM, 20 μM, 40 μM, and 60 μM. An equal volume of DMSO was added as a control well.
After 6 hours of drug treatment, the plates were observed under a microscope with a 20× objective lens, and five fields of view were randomly selected for each well to take photos and record. If in the observed field of view, bright vacuoles with clear border appeared in the cell, and at least one of the following conditions was met: 1) a cell contained at least 1 vacuole with a diameter greater than 3 μm; 2) a cell contained 3 or more vacuoles with a diameter within the range of 0.5-3 μm, the cell was considered to be methuosis-positive cells.
Among them, CELL positive: the number of methuosis-positive cells; CELL normal: the number of cells with normal morphology

T98G cells [2] = assay: Cell proliferation inhibition assay, T98G, CellCounting-Lite 2.0 (Example 1); type: cell-based, human; settings: for IC50: Homo sapiens, T98G, 72 hours of drug treatment
Protocol: T98G cells were stably passaged twice. When the cell density reached above 85%, the cells were digested with 0.05% trypsin-EDTA for 3 minutes, resuspended, plated in a 96-well plate at the corresponding density, and cultured for 24 hours. The cells were treated with drugs at final concentrations of the culture system of 0.41 μM, 1.23 μM, 3.7 μM, 11.1 μM, 33.3 μM, and 100 μM, respectively. After 72 hours of drug treatment, cell viability was determined using CellCounting-Lite™ 2.0 kit. The plate was added with reagents at 100 µL/well according to the CellCounting-Lite™ 2.0 kit instructions, and shaken for 10 minutes. The luminescence value (LUM) as read on a multi-function plate reader, and the relative viability of the cells was calculated.
Relative viability of tumor cells V (%)=(LUM-LUMbackground)/(LUMnormal control−LUMbackground)×100%. LUMbackground was the background reading of the complete culture medium well added with the detection reagent. The half inhibitory concentration (IC50) was calculated using GraphPad Prism 8.0.1 statistical software.

[3] = system: U87MG-Luc glioblastoma cell in situ transplantation tumor; assay: S2 combined with TMZ in U87MG-Luc glioblastoma in situ transplantation tumor model in nude mice (Example 5); settings: TMZ 3 mg/kg
Protocol: Before the transplantation, the U87MG-Luc cells were digested with 0.05%-trypsin-EDTA, resuspended with pre-cooled PBS to 4×10^7 cells/mL, and transferred to ice for later use. The nude mice were anesthetized with isoflurane gas, and then fixed on a stereotaxic machine in a prone position. The scalp of the nude mouse was disinfected with iodophor, and incised sagittally with a scalpel. The incision was cleaned with iodophor. The skull was exposed, and drilled with a skull drill extending 1.0 mm in front of the bregma and deviating the right side 2.0 mm. 5 μL of cell suspension (2×10^5 cells) was manually injected with a 10 μL flat-head microsyringe, with inserting the needle to a depth of 3.5 mm, withdrawing the needle 0.5 mm, and injecting for about 10 minutes. […]
On days 7, 14, and 21 after the transplantation, 200 μL of 15 mg/mL D-luciferin potassium salt solution, which was filtered and sterilized through a 0.22 μm filter, was injected intraperitoneally. […] Luorescence intensity was analyzed using Living Image software to obtain fluorescence intensity [p/s], which reflected the size of tumor tissue in the brain of experimental animals.
The survival conditions of experimental animals were monitored, and the animals' death dates were recorded timely.
Quantitative data are expressed as mean±standard error. […]

[4] = system: human glioma cell line T98G; settings: single drug, maximum drug concentration of 20 M, 6 hours
Protocol: T98G cells were stably passaged twice. […] The cells were cultured for 24 hours, and added with the compound solution prepared above to each well according to the grouping, such that the compound concentrations in the culture system were 0.1 M, 1 M, 5 μM, and 20 M, respectively. An equal volume of DMSO was added as a control well.
If bright vacuoles with clear border appeared in the observed field of view, and at least one of the following conditions was met: 1) a cell contained at least one vacuole with a diameter greater than 3 μm; 2) a cell contained 3 or more vacuoles with a diameter within the range of 0.5-3 μm; the cell was considered as a methuosis-positive cell.

Row | SMILES | Vacuolation rate (%) (T98G cells [1]; 5 μM) | Vacuolation rate (%) (T98G cells [1]; 10 μM) | Vacuolation rate (%) (T98G cells [1]; 20 μM) | Induction of vacuolation in T98 cells (T98G cells [1]) | IC50 (T98G cells [2]) | Rank of vacuolation-inducing activity among the derivatives (T98G cells [1]) | Vacuolation rate (%) (T98G cells [1]; 40 μM) | Proliferation inhibitory activity on T98G (in words) (T98G cells [2]; 72 hours) | Median survival period ([3]; vehicle 30) | Overall survival period ([3]; vehicle 33) | Induction of vacuolated cell phenotype [4]
1 | CCOC(=O)C1=C(C)Nc2nc3c(c(N)c2[C@@H]1c1ccccc1Cl)CC(C)(C)CC3 [(+)-S2] | 1.3 ± 1.6% | 10.0 ± 4.2% | 69.3 ± 6.9% | can induce vacuolation | 5.3 µM |  |  |  |  |  | 
2 | CCOC(=O)C1=C(C)Nc2nc3c(c(N)c2[C@H]1c1ccccc1Cl)CC(C)(C)CC3 [(−)-S2] | 1.2 ± 1.7% | 21.9 ± 9.0% | 96.47 ± 2.4% | can induce vacuolation | 9.8 µM |  |  |  |  |  | 
3 | CCOC(=O)C1=C(C)Nc2nc3c(c(N)c2C1c1ccccc1)CCCC3 (stereo not drawn) [Compound S1] | 0.0% | 0.3 ± 0.6% | 2.23 ± 0.5% | can induce vacuolation | 47.8 µM | weakest vacuolation-inducing activity | 10.0 ± 5.6% | weak |  |  | 
4 | C=CCOC(=O)C1=C(C)Nc2nc3c(c(N)c2C1c1cccc(F)c1)CC(C)(C)CC3 (stereo not drawn) [Compound S3] | 1.1 ± 1.5% | 5.34 ± 1.2% | 9.04 ± 3.8% | can induce vacuolation | 7 µM |  | 57.4 ± 13.9% |  |  |  | 
5 | C#CCOC(=O)C1=C(C)Nc2nc3c(c(N)c2C1c1cccc(F)c1)CC(C)(C)CC3 (stereo not drawn) [Compound S4] | 0.6 ± 1.4% | 5.0 ± 1.3% | 10.43 ± 1.0% | can induce vacuolation | 12.7 µM |  | 76.9 ± 12.1% |  |  |  | 
6 | COCCOC(=O)C1=C(C)Nc2nc3c(c(N)c2C1c1ccccc1Cl)CC(C)(C)CC3 (stereo not drawn) [Compound S5] | 1.4 ± 1.4% | 10.7 ± 0.90% | 35.1 ± 1.3% | can induce vacuolation | 4.5 µM |  |  |  |  |  | 
7 | CC1=C(C(=O)OC(C)C)C(c2cccc(F)c2)c2c(nc3c(c2N)CC(C)(C)CC3)N1 (stereo not drawn) [Compound S6] | 0.00% | 10.5 ± 1.6% | 15.3 ± 1.3% | can induce vacuolation | 20.5 µM |  | 52.3 ± 2.5% |  |  |  | 
8 | Cn1nnc2c(C(N)=O)ncn2c1=O [TMZ, Temozolomide] |  |  |  |  |  |  |  |  | 33.5 days | 35 days | 
9 | COc1ccc([C@@H]2Sc3ccccc3N(CCN(C)C)C(=O)[C@@H]2OC(C)=O)cc1 [diltiazem] |  |  |  |  |  |  |  |  |  |  | None of calcium channel inhibitors nifedipine, verapamil, diltiazem, and flunarizine with a maximum drug concentration of 20 M could induce a vacuolated cell phenotype
10 | Fc1ccc(C(c2ccc(F)cc2)N2CCN(C/C=C/c3ccccc3)CC2)cc1 [flunarizine] |  |  |  |  |  |  |  |  |  |  | None of calcium channel inhibitors nifedipine, verapamil, diltiazem, and flunarizine with a maximum drug concentration of 20 M could induce a vacuolated cell phenotype
